Test results taken from patent US6682753B2, “Methods for promoting weight gain using GPE-related compounds” (NeuronZ Limited, priority 2001, dated 2004).

B1: BDNF: brain-derived neurotrophic factor (BDNF) (protein, UniProt P23560 19-247, looked up)
Neurotrophic factor BDNF …: APMKEANIRGQGGLAYPGVRTHGTLESVNGPKAGSRGLTSLADTFEHVIEELLDEDQKVRPNEENNKDADLYTSRVMLSSQVPLEPPLLFLLEEYKNYLDAANMSMRVRRHSDPARRGELSVCDSISEWVTAADKKTAVDMSGGTVTVLEKVPVSKGQLKQYFYETKCNPMGYTKEGCRGIDKRHWNSQCRTTQSYVRALTMDSKKRIGWRFIRIDTSCVCTLTIKRGR
B2: GDNF: glial-derived neurotrophic factor (GDNF) (protein, UniProt P39905 78-211, looked up)
Glial cell line-derived …: SPDKQMAVLPRRERNRQAAAANPENSRGKGRRGQRGKNRGCVLTAIHLNVTDLGLGYETKEELIFRYCSGSCDAAETTYDKILKNLSRNRRLVSDKVGQACCRPIAFDDDLSFLDDNLVYHILRKHSAKRCGCI

Key:
[1] = Body weight gain over 14 days in rats after unilateral fimbria-fornix lesion with daily intracerebroventricular infusion; assay type: in vivo, male Wistar rats; details: lesioned rats; daily icv infusion of 2 μL for 14 days: GPE 3 μg/day, IGF-I 20 μg/day, NGF 1 μg/day
Excerpt: A group of male Wistar rats weighing 174-193 g (University of Auckland, Animal Resources Unit) were divided randomly into the following groups: “control”, “sham”, “vehicle”, “GPE”, “IGF-I”, and “NGF”, depending on the treatment each animal was to undergo. “Control” animals were weighed at the first and last time points and were not treated or handled at any other time. “Sham” animals underwent a sham surgery of anesthesia, incision through the scalp skin, drill hole through the skull, bone wax to seal the drill hole, and sutures for the skin incision. They were then handled daily in mock infusions to mimic handling of animals that received lesions and intracerebroventricular infusions.
“Vehicle”, “GPE”, “IGF-I”, and “NGF” animals were anaesthetized with 75 mg/Kg sodium pentobarbital and positioned in a stereotaxic apparatus (Kopf Instruments, USA), and underwent unilateral fimbria-fomix lesions to lesion septal cholinergic neurons and chronic cannula implantation into the left lateral cerebral ventricle. Fomix-fimbria lesions were performed by transecting the fimbria-fornix projection using a specialized retractable wire Scouten knife (Kopf Instruments) designed to minimize tissue damage except at the required lesion site. Anaesthetized animals received an incision through their scalp skin and a small drill hole was made in the skull at the stereotaxic coordinates anterior-posterior (AP) axis−1.0 mm from the bregma and medial-lateral (ML) axis+2.5 mm from midline (left side), from an atlas of the rat brain (Paxinos et al. (1986), “The rat brain in stereotaxic coordinates”, Academic Press, London). The knife was lowered into the brain through the drill hole to the coordinate+6.0 mm ventral to the skull on the dorsal-ventral (DV) axis. The knife blade was then extended 2.5 mm toward midline at an angle of 30° caudal to the bregma. The knife, with blade extended, was then raised 4.5 mm dorsally to axotomize the fimbria-fomix fibres. The blade was then retracted, the knife lowered 4.5 mm to its original coordinate, and the process was repeated. […]

[2] = administered into the brain following transient ischemia to the forebrain, adult rats; cited from earlier work
[3] = Weight gain in human patient suffering from a head injury, central administration (Examples 2-4); assay type: in vivo; details: 14 days
Procedure: GPE in a dose of 10 μg/Kg/day is administered via lateral cerebroventricular injection into the brain of a human patient suffering from a head injury to promote weight gain to normal levels. Alternatively, a GPE analog is administered. Treatment is commenced as soon as possible after the head injury and then for 14 days thereafter.
A GPE analog in a dose of 20 μg/Kg/day is administered via focal injection into the lateral cerebral ventricle of a human patient suffering from a head injury to promote weight gain to normal levels. Alternatively, GPE is administered. Treatment is commenced as soon as possible after the head injury and then for 14 days thereafter.
GPE in a dose of 5 μg/Kg/day is administered via a surgically inserted shunt into the lateral cerebral ventricle of a human patient suffering from a head injury to promote weight gain to normal levels. Alternatively, a GPE analog is administered. Treatment is commenced as soon as possible after the head injury and then for 14 days thereafter.

[4] = infused in the brain of adult rats after partial or full lesions (e.g. partial fimbria-fornix transection); cited from earlier work

| Molecule | weight gain over the 14 days [1] | effect on body weight gain [4] | further results |
| --- | --- | --- | --- |
| IGF-I: insulin-like growth factor I (IGF-I) | minimal weight gain | – | effect on body weight [2]: cause weight gain |
| NCC(=O)N1CCC[C@H]1C(=O)N[C@@H](CCC(=O)O)C(=O)O [GPE, glycyl-L-prolyl-L-glutamic acid] | the normally expected weight gain occurred | – | weight gain in patient ([3]; 5 μg/Kg/day via surgically inserted shunt into the lateral cerebral ventricle): Normal weight gain is promoted; weight gain in patient ([3]; 10 μg/Kg/day via lateral cerebroventricular injection): Normal weight gain is promoted; weight gain in patient ([3]; 20 μg/Kg/day via focal injection into the lateral cerebral ventricle): Normal weight gain is promoted |
| bFGF: basic fibroblast growth factor (bFGF) | – | either decrease normal body weight gain or cause weight loss | – |
| NGF: Nerve growth factor (NGF) | no weight gain | either decrease normal body weight gain or cause weight loss | – |
| B1 | – | either decrease normal body weight gain or cause weight loss | – |
| B2 | – | either decrease normal body weight gain or cause weight loss | – |
